# Reference: patent publication US20040209897A1 (Pharmacia Corporation, priority 2002, published 2004)
# pIC50: −log10 of the molar value. Counter-ions that a name gives are not always drawn.
# Target: Recombinant MAPKAPK2 (MK-2) (Homo sapiens, UniProt P49137)
# Experiment: Determination of MK-2 IC50 (HSP-peptide phosphorylation, anion exchange resin capture assay)
# Type: biochemical
# Conditions: MAPKAP2 Avg. IC50
# Recombinant MAPKAPK2 (MK-2), sequence (P49137 whole entry, species assumed): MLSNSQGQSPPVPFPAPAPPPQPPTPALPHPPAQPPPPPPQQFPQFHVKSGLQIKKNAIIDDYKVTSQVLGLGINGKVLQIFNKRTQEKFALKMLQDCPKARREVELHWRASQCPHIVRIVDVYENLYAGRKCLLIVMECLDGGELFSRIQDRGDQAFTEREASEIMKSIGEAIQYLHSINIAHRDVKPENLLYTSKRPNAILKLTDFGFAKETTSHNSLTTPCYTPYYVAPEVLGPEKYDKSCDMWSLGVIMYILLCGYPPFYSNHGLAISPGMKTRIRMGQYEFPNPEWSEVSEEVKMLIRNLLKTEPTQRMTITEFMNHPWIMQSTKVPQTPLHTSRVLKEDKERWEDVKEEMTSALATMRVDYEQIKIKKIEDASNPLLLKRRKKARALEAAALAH
row,Compound,pIC50
1,"O=C1NCCc2[nH]c(-c3ccnc(/C=C/c4ccc(C(F)(F)F)cc4F)c3)cc21 [Example 510, 2-(2-{(E)-2-[2-fluoro-4-(trifluoromethyl)phenyl]vinyl}pyridin-4-yl)-1,5,6,7-tetrahydro-4H-pyrrolo[3,2-c]pyridin-4-one trifluoroacetate]",6.82
2,"O=C1NCC(c2ccccc2)c2[nH]c(-c3ccnc(-c4cnc5ccccc5c4)c3)cc21 (centres unmarked) [Example 768, 7-phenyl-2-(2-quinolin-3-ylpyridin-4-yl)-1,5,6,7-tetrahydro-4H-pyrrolo[3,2-c]pyridin-4-one trifluoroacetate]",5.10
3,"O=C(CCCl)Nc1cccc(-c2cc(-c3cc4c([nH]3)CCNC4=O)ccn2)c1 [Example 336, trifluoroacetate]",7.19
4,"O=C1NCCc2[nH]c(-c3ccnc(/C=C/Cc4ccccc4)c3)cc21 [Example 713, trifluoroacetate]",5.75
5,"Cc1cc(C)c(/C=C\c2cc(-c3cc4c([nH]3)CCNC4=O)ccn2)cc1C [Example 604, trifluoroacetate]",6.45
6,"O=C1NCCc2[nH]c(-c3ccnc(-c4cncc5ccccc45)c3)cc21 [Example 627, trifluoroacetate]",6.35
7,"O=C1NCCc2[nH]c(-c3ccnc(-c4cccc(CNCc5cccc(Cl)c5)c4)c3)cc21 [Example 408, bis(trifluoroacetate)]",7.05
8,NCCCc1ccc(-c2cc(-c3cc4c([nH]3)CCNC4=O)ccn2)cn1 [Example 485],6.88
9,O=C1NCCc2[nH]c(-c3ccnc(-c4ccc([N+](=O)[O-])cc4)c3)cc21 [Example 587],6.50
10,"CCCCc1cccc(-c2cc(-c3cc4c([nH]3)CCNC4=O)ccn2)c1 [Example 659, trifluoroacetate]",6.14
11,"O=C1NCCc2[nH]c(-c3ccnc(-c4cccc(CN5CCCC5)c4)c3)cc21 [Example 660, trifluoroacetate]",6.12
12,"CC(C)CCN(CCCc1ccc(-c2cc(-c3cc4c([nH]3)CCNC4=O)ccn2)cn1)CCC(C)C [Example 511, 2-(6′-{3-(bis(3-methylbutyl)amino]propyl}-2,3′-bipyridin-4-yl)-1,5,6,7-tetrahydro-4H-pyrrolo[3,2-c]pyridin-4-one trifluoroacetate]",6.82
13,"O=C1NCCc2[nH]c(-c3ccnc(/C=C/c4csc(-c5ccccc5)n4)c3)cc21 [Example 602, trifluoroacetate]",6.46
14,"O=C(CCl)Nc1cccc(-c2cc(-c3cc4c([nH]3)CCNC4=O)ccn2)c1 [Example 401, trifluoroacetate]",7.06

# The remaining compounds from weak to strong by pIC50, led by results:
row,pIC50,Compound
1,7.19,"O=C(/C=C/c1ccccc1)Nc1cc(-c2cc3c([nH]2)CCNC3=O)ccn1 [Example 334, trifluoroacetate]"
2,7.28,"C=C(C)C(=O)Nc1cccc(-c2cc(-c3cc4c([nH]3)CCNC4=O)ccn2)c1 [Example 287, trifluoroacetate]"
3,7.30,"O=C1NCCc2[nH]c(-c3ccnc(/C=C/c4c[nH]c5ccccc45)c3)cc21 [Example 276, trifluoroacetate]"
4,7.30,"COc1ccc2cc(-c3cc(-c4cc5c([nH]4)CCNC5=O)ccn3)ccc2c1 [Example 273, trifluoroacetate]"
5,7.41,"N#Cc1ccccc1/C=C/c1cc(-c2cc3c([nH]2)CCNC3=O)ccn1 [Example 225, trifluoroacetate]"
6,7.49,"O=C1NCCc2[nH]c(-c3ccnc(/C=C/c4cccc(CCN5CCOCC5)c4)c3)cc21 [Example 192, trifluoroacetate]"
7,7.55,"N#Cc1cccc(-c2cc(-c3cc4c([nH]3)CCNC4=O)ccn2)c1 [Example 160, trifluoroacetate]"
8,7.72,"C=CC(=O)Nc1cccc(-c2cc(-c3cc4c([nH]3)CCNC4=O)ccn2)c1 [Example 82, trifluoroacetate]"
9,8.15,"O=C1NCCc2[nH]c(-c3cc(-c4cnc5ccccc5c4)ncc3F)cc21 [Example 4, trifluoroacetate]"
